Reference: patent publication US20220282304A1, “SAME-SAMPLE ANTIBIOTIC SUSCEPTIBILITY TEST AND RELATED COMPOSITIONS, METHODS AND SYSTEMS” (CALIFORNIA INSTITUTE OF TECHNOLOGY, priority 2021, published 2022)

System: Escherichia coli K12
Test: Digital same-sample filtration AST at four exposure durations (Example 8)
Assay type: cell-based
Conditions: for Both (number of wells) / Empty (number of wells) / Extracellular only (number of wells) / Intracellular only (number of wells) / Intact (most likely number of cells) / Killed (most likely number of cells): Treated 1.0 μg ETP/mL; for Both (number of wells) / Empty (number of wells) / Extracellular only (number of wells) / Intracellular only (number of wells): 12 partitions, qPCR; for Intact (most likely number of cells) / Killed (most likely number of cells): assuming one cell per non-empty sample
Procedure: The inoculum was small enough that no detectable difference in the sample's optical density at 600 mm (OD600) was detectable by a spectrophotometer with a sensitivity of 0.01 absorbance units. After an incubation at 37° C., the media became turbid with an OD600 of 0.34 absorbance units after 3.08 hours of incubation.
In this experiment, the number and volume of sample partitions was restricted, for logistical reasons, to 96 partitions 10 μL in volume, specifically the wells of a 96-well plate. A goal was chosen of having a >98% chance of ending up with at least 48 empty partitions. When all partitions are the same volume, the following formula relates the expected number of empty partitions, the partition volume, and the density of cells.
N is the total number of partitions, n is the number of empty partitions, V is the partition volume, D is the density of cells, and t is a threshold probability chosen by the practitioner. In order to achieve digital sample partitioning with the available 96-well plate, each 10 μL sample of the specimen needed to contain between 0.02 and 2.5 cells on average. In this experiment, a density of 1 cells per sample were targeted. Due to systematic bias in the conversion of OD600 to cell density, the actual density achieved in the exposure was closer to 0.281 cells per sample. The batch culture specimen itself was diluted to a density of 28.1 CFU/mL (0.0281 cells/μL) to achieve the target cells/sample density.
To begin the AST protocol, the contrived clinical specimen (containing 28.1 CFU/mL) was physically partitioned into the 96 samples by transferring 10 μL of the specimen, in 96 separate transfers (actually […] with a multichannel pipette), to each well of a separable 96-well microtiter plate. Then, the entire plate was sealed with a RNase/DNase-free plastic, adhesive sealing membrane.
Each well of the 96-well microtiter plate contained 15 μL of Mueller-Hinton Broth (MHB) growth media, placed there before the specimen was partitioned. Half of the wells (48) contained 0 μg/mL of dissolved ETP antibiotic and served as reference condition antibiotic exposures. The other half of the wells contained 1.67 μg/mL of ETP (for a final concentration of 1.0 μg/mL) and served as 48 treated condition antibiotic exposures. The separable plate comprised 4 detachable sections bearing 3 columns and 8 rows of wells.
The treated and reference conditions were arranged so that each of the four groups of wells contained 12 treated and 12 reference conditions. In total, there would eventually be eight experimental conditions: 4 exposure durations of 0, 30, 60, and 120 min, each with 12 treated and 12 reference conditions.
Immediately after the specimen had been partitioned, one section (24 wells in total) of the separable 96-well plate was detached to serve as the 0-minute set of conditions. The rest of the separable 96-well plate was incubated at 37° C. Then, the following step was repeated for each time point of 0, 30, 60, and 120 minutes.
The entire volume of each antibiotic exposure was transferred to a Millipore® 96-well sterile polystyrene MultiScreenHTS® filter plate (Millipore-Sigma MSGVS2210). Each well of the filter plate contained a hydrophilic polyvinylidene fluoride (PVDF) filter membrane with a 0.22 μm pore size. A 96-well polypropylene microtiter plate was affixed to the bottom of the filter plate. The filter plate was promptly centrifuged at 2200 relative centrifugal force for 3 minutes to speed the passage of the antibiotic exposure sample through the filter and into 96-well microtiter plate. The collected fluid was called the “filtrate.” […]

In the case of `C[C@@H](O)[C@H]1C(=O)N2C(C(=O)O)=C(S[C@@H]3CN[C@H](C(=O)Nc4cccc(C(=O)O)c4)C3)[C@H](C)[C@H]12` [ETP, ertapenem], the susceptibility call (1.0 μg/mL ETP, overall p-value vs 0.005) is reported as “susceptible”, the “Both (number of wells)” value (exposure duration 0 min) is reported as 0 and the “Empty (number of wells)” value (exposure duration 0 min) is reported as 12. For the same molecule, the “Extracellular only (number of wells)” value (exposure duration 0 min) was 0, the “Intracellular only (number of wells)” value (exposure duration 0 min) was 0 and the “Intact (most likely number of cells)” value (exposure duration 0 min) was 0. The “Killed (most likely number of cells)” value (exposure duration 0 min) was 0, the “Both (number of wells)” value (exposure duration 30 min) was 0 and the “Empty (number of wells)” value (exposure duration 30 min) was 7. For the same molecule, the “Extracellular only (number of wells)” value (exposure duration 30 min) was 4, the “Intracellular only (number of wells)” value (exposure duration 30 min) was 1 and the “Intact (most likely number of cells)” value (exposure duration 30 min) was 1. The “Killed (most likely number of cells)” value (exposure duration 30 min) was 4, the “Both (number of wells)” value (exposure duration 60 min) was 0 and the “Empty (number of wells)” value (exposure duration 60 min) was 8. For the same molecule, the “Extracellular only (number of wells)” value (exposure duration 60 min) was 4, the “Intracellular only (number of wells)” value (exposure duration 60 min) was 0 and the “Intact (most likely number of cells)” value (exposure duration 60 min) was 0. For the same molecule, the “Killed (most likely number of cells)” value (exposure duration 60 min) was 4, the “Both (number of wells)” value (exposure duration 120 min) was 0 and the “Empty (number of wells)” value (exposure duration 120 min) was 8. For the same molecule, the “Extracellular only (number of wells)” value (exposure duration 120 min) was 4, the “Intracellular only (number of wells)” value (exposure duration 120 min) was 0 and the “Intact (most likely number of cells)” value (exposure duration 120 min) was 0. For the same molecule, the “Killed (most likely number of cells)” value (exposure duration 120 min) was 4.
